Source: US8563744B2, “3-amino-benzo [D] isothiazole dioxide derivatives and their use as pesticides” (Syngenta Crop Protection, LLC, priority 2008, dated 2013)

Legend:
Assay type in all cases: in vivo
[1] = tested on: Myzus persicae; test: B2: Myzus persicae (green peach aphid), mixed population, feeding/residual contact activity, preventive; conditions: foliar, 144 h, sunflower leaf discs sprayed with test solutions of 200 ppm, aphid population of mixed ages, 6 days incubation, read-out: control of Myzus persicae (mortality)
Description: B2: Myzus persicae (green peach aphid) (mixed population, feeding/residual contact activity, preventive)
Sunflower leaf discs are placed on agar in a 24-well microtiter plate and sprayed with test solutions of 200 ppm. After drying, the leaf discs are infested with an aphid population of mixed ages. After an incubation period of 6 days, samples are checked for mortality and special effects (e.g. phytotoxicity).

[2] = tested on: Myzus persicae; test: B3: Myzus persicae (green peach aphid), mixed population, systemic/feeding activity, curative; conditions: 144 h, roots of infested pea seedlings placed in test solutions of 24 ppm, 6 days after introduction, read-out: control of Myzus persicae (mortality)
Excerpt: B3: Myzus persicae (green peach aphid) (mixed population, systemic/feeding activity, curative)
Roots of pea seedlings, infested with an aphid population of mixed ages, are placed directly in the test solutions of 24 ppm. 6 days after introduction, samples are checked for mortality and special effects on the plant.

[3] = tested on: Myzus persicae; test: B1: Myzus persicae (green peach aphid), mixed population, sachet test; conditions: 144 h, 12.5 ppm test compound in 30% sucrose solution, parafilm sachet, 6 days after infestation, read-out: control of Myzus persicae (mortality, feeding activity)
Description: B1: Myzus persicae (green peach aphid) (mixed population, sachet test)
Each well of a 24-well microtiter plate is filled with 0.6 ml 30% sucrose solution, containing 12.5 ppm of the test compounds. For producing the sachets, the wells are covered with streched parafilm and infested with a mixed population of Myzus persicae. 6 days after the infestation, samples are checked for mortality (feeding activity).

NC1=NS(=O)(=O)c2c(Br)cccc21 [Compound P1.1, 7-bromo-1,1-dioxo-1H-1λ^6-benzo[d]isothiazol-3-ylamine]
mortality at 200 ppm [1]: ≥ 80% | mortality at 24 ppm [2]: ≥ 80%

CNC1=NS(=O)(=O)c2c(F)cccc21 [Compound P1.15, (7-Fluoro-1,1-dioxo-1H-1λ^6-benzo[d]isothiazol-3-yl)-methyl-amine]
mortality at 200 ppm [1]: ≥ 80% | mortality at 24 ppm [2]: ≥ 80%

CC(C)N1C(=N)c2cccc(Br)c2S1(=O)=O [Compound P2.1, 7-bromo-2-isopropyl-1,1-dioxo-1,2-dihydro-1λ^6-benzo[d]isothiazol-3-ylideneamine]
mortality at 12.5 ppm [3]: ≥ 80%
